According to US8008452B2, “Phosphorylated Ndr kinase” (Novartis Forschungesstiftung, Zweigniederlassung Friedrich …, priority 2002, dated 2011):

Experiments:
[1] = test system: GST-NDR1; assay: GST-NDR1 in vitro autophosphorylation, incorporated 32P by Cerenkov counting; assay type: biochemical, human; conditions: for amount of incorporated 32P (autophosphorylation), −S100B / amount of incorporated 32P (autophosphorylation), +S100B: GST-NDR1 variant; for amount of incorporated 32P (autophosphorylation), −S100B: 1 microgram, autophosphorylated 2 hours without further additions, pmol ATP/pmol GST-NDR1; for amount of incorporated 32P (autophosphorylation), +S100B: 2 hours in the presence of 1 mM CaCl2 and 10 microM bovine S100B, in pmol ATP/pmol GST-NDR1; for autophosphorylation rate of GST-NDR1 mutant (in words): compared with wild type
Protocol: BL21-DE3-pRep4 E. coli strain was transformed with the pGEX-2T_NDR1 wild type or mutant plasmids. BL21-DE3 is a protease-deficient E. coli strain and pRep4 is a Laclq repressor-bearing plasmid both available commercially. Optionally, if desired, an E. coli strain comprising GroESL can be used, which expresses a chaperone protein that stabilizes the kinase. Mid-logarithmic phase cells were induced with 0.5 mM isopropyl beta-D-thiogalactopyranoside (IPTG) for 4 hours at 30° C. Bacteria were lysed using a French press in the presence of 1 mg/ml lysosyme, and the fusion proteins were purified on glutathione-agarose (Amersham Pharmacia Biotech) as described by the manufacturers. Recombinant proteins were assayed for kinase activity as described below and autophosphorylation was determined after SDS-PAGE separation either by Cerenkov counting or by exposure to a PhosphorImager screen followed by analysis with ImageQuant software (Molecular Dynamics).
In brief, 1 microgram of purified GST-NDR1 (in solution ˜0.5 microM) wild type, kinase dead (K118A), and alanine mutants of phosphorylation residues Thr74, Ser281, and Thr444 were autophosphorylated for 2 hours in vitro without further additions or in the presence of 1 mM CaCl2 and 10 microM bovine S100B. Proteins were visualized on SDS gels using Coomassie Blue R-350 stained SDS-PAGE gel, and [gamma-^32P]ATP-labelled proteins were visualized by autoradiography of the gels developed on a Phosphorimager screen. The amount of incorporated ^32P was quantified by Cerenkov counting.

[2] = test system: HA-NDR1; assay: Immunodetection of HA-NDR1 phosphorylated on Ser281 or Thr444 from COS-1 cells; assay type: cell-based, human
Protocol: (§1) Either 1 microgram GST-NDR1 or HA-NDR1 immunoprecipitated from 100 microgram COS-1 detergent extracts as described above was separated on 10% SDS-PAGE and immunoblotted 2 h at RT or overnight at 4° C. with anti-Ser281P antisera (1:1000) in the presence of 50 microg/ml competing unphosphopeptide or anti-Thr444P purified antibody (1:500). Both antibodies were detected with horseradish peroxidase-conjugated donkey anti-rabbit Ig antibody (Amersham biosciences) and developed by ECL (chemiluminescence; Amersham Pharmacia Biotech).
To examine this possibility, extracts from transfected COS-1 cells were analyzed with the anti-Ser281P and anti-Thr444P antisera. Protein extracts (10 microg) from transfected COS-1 cells were immunoblotted with 12CA5 to verify similar expression levels of each HA-NDR1 construct. For the analysis of phosphorylation status, 12CA5-immunoprecipitated HA-NDR1 variants (out of 100 microg protein extract) were analysed by immunoblotting with phosphospecific antibodies directed against P-S281 or P-T444.
Protein extracts (10 microg) from mock- and HA-NDR1-transfected COS-1 cells were also immunoblotted with 12CA5 to verify equal expression levels of HA-NDR1 construct. For the analysis of phosphorylation status, 12CA5-immunoprecipitated HA-NDR1 (out of 100 microgram protein extract) was analysed by immunoblotting with phosphospecific antibodies directed against P-S281 or P-T444.

[3] = test system: GST-NDR1; assay: Immunodetection of GST-NDR1 phosphorylated on Ser281 or Thr444 after in vitro autophosphorylation; assay type: biochemical, human; conditions: in vitro autophosphorylation with or without Ca2+/S100B
Protocol: as §1
To reliably quantify the effect of S100B on NDR1 phosphorylation status, rabbit polyclonal antibodies were raised against phosphoepitopes comprising Ser281 or Thr444. GST-NDR1 mutants were treated essentially as described in Example 2 and detected either with anti-NDR1_C-term antiserum or polyclonal antibodies recognising NDR1 phosphorylated on Ser281 or Thr444.

[4] = target: T1, GST-NDR1 (Homo sapiens, UniProt Q15208, T444A); assay: GST-NDR1 kinase assay (peptide kinase assay); assay type: biochemical; conditions: compared with wild type
T1 construct: made in house; host or cells: E. coli BL21-DE3-pRep4
T1 sequence (Q15208 whole entry T444A): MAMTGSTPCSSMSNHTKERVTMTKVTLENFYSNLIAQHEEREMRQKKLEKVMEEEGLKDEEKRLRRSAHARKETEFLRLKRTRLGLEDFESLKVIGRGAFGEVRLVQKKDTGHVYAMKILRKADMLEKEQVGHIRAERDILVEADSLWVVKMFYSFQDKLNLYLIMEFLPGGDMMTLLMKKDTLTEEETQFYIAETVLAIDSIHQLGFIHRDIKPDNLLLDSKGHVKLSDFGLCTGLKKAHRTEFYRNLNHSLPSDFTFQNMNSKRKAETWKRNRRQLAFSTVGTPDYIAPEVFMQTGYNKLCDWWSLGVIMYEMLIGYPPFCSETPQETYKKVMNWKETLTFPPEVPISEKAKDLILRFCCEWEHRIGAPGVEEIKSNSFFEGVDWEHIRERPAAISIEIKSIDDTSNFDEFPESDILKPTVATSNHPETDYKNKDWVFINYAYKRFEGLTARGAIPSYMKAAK
Protocol: 1 microgram of purified recombinant GST-NDR1 wild type and mutants (without further treatment or autophosphorylated for 2 h in the presence or absence of 1 mM CaCl2 and […] (Sigma)) were assayed in 20 microliter of reaction mixture containing 20 mM Tris-HCl pH 7.5, 10 mM MgCl2, 1 mM DTT, 100 microM [gamma-^32P]ATP (˜0.5 microCi/microliter), and 1 mM NDR1 substrate peptide ([…]; SEQ ID NO:22). After 30 mins incubation at 30° C., reactions were stopped with 50 mM EDTA, and 10 microliters of reaction mixture were spotted onto 2 cm^2 squares of P81 phosphocellulose paper (Whatman). These were subsequently washed for 4×5 min and 3×20 min in 1% phosphoric acid and once in acetone before counting in a liquid scintillation counter. One unit of NDR1 activity was defined as the amount which catalyses the phosphorylation of 1 nmol peptide substrate in 1 min.
Specific activity of GST-NDR1 mutants was also measured by a peptide kinase assay as described above. For this purpose, 1 microgram of purified GST-NDR1 wild type and alanine mutants were left without further treatment or autophosphorylated for 2 h in the presence or absence of 1 mM CaCl2 and […].

Substance | amount of incorporated 32P (autophosphorylation), −S100B [1] | amount of incorporated 32P (autophosphorylation), +S100B [1] | autophosphorylation rate of GST-NDR1 mutant (in words) [1] | phosphorylation of HA-NDR1 on Ser281 ([2]; immunoblot with anti-P-S281) | phosphorylation of HA-NDR1 on Thr444 ([2]; immunoblot with anti-P-T444) | phosphorylation of GST-NDR1 on Ser281 and Thr444 (phosphospecific antibodies) [3] | decrease of kinase activity of GST-NDR1 mutant [4]
K118A: NDR1 kinase dead mutant, Lys 118 to alanine; GST fusion or HA-tagged | 0.0076 | 0.0064 | did not show detectable autophosphorylation | did not display any phophorylation on this position | became phosphorylated even after abolishing the kinase activity | – | –
T74A: NDR1 alanine mutant of phosphorylation residue Thr74; GST fusion or HA-tagged | 0.158 | 0.2072 | negligible reduction | – | – | abolished the S100B-mediated increase of phosphorylation for both Ser281 and Thr444 residues | –
T444A: NDR1 alanine mutant of phosphorylation residue Thr444; GST fusion or HA-tagged | 0.1232 | 0.2412 | significant decrease | – | – | almost normal autophosphorylation on Ser281 | about 5 fold
